Data published in patent US9567341B2, “Pyrrolopyrimidine derivatives as NR2B NMDA receptor antagonists” (Rugen Holdings (Cayman) Limited, priority 2014, dated 2017).
Read-outs that look alike come from different tables or passages of the source.

Key:
human NR1/NR2B = human NR1/NR2B (Homo sapiens (Human), UniProt Q13224); test: NR2B antagonist activity (Fluo-4 calcium influx assay); type: cell-based
human NR1/NR2A = human NR1/NR2A (Homo sapiens (Human), UniProt Q05586+Q12879); test: NR2A activity (Fluo-4 calcium influx assay); type: cell-based
hERG channel = hERG channel (Homo sapiens (Human), UniProt Q12809); conditions: pH 7.35
Rats = test: Electroconvulsive threshold (ECT) test; type: in vivo, rat; conditions: p.o. 60 minutes before ECS, theophylline 128 mg/kg, diazepam 16 mg/kg
CYP2D6 = CYP2D6 (Homo sapiens (Human), UniProt P10635); test: CYP P450 enzyme inhibition in pooled human liver microsome; conditions: read-out: CYP2D6 IC50, dextromethorphan 5 μM
Male mice (strain NLMN) = test: Forced swim test; type: in vivo, mouse; conditions: intraperitoneal, imipramine 32 mg/kg IP
[1] = HEK293 cells stably expressing human NR1/NR2B, glutamate 100 μM, glycine 50 μM, read-out: NR2B IC50
[2] = as printed in the CYP2D6 table, read-out: NR2B IC50
[3] = HEK293 cells stably expressing human NR1/NR2A, glutamate 100 μM, glycine 50 μM, read-out: NR2A IC50

Sequence of human NR1/NR2B (Q13224 27-1484, other chains not shown): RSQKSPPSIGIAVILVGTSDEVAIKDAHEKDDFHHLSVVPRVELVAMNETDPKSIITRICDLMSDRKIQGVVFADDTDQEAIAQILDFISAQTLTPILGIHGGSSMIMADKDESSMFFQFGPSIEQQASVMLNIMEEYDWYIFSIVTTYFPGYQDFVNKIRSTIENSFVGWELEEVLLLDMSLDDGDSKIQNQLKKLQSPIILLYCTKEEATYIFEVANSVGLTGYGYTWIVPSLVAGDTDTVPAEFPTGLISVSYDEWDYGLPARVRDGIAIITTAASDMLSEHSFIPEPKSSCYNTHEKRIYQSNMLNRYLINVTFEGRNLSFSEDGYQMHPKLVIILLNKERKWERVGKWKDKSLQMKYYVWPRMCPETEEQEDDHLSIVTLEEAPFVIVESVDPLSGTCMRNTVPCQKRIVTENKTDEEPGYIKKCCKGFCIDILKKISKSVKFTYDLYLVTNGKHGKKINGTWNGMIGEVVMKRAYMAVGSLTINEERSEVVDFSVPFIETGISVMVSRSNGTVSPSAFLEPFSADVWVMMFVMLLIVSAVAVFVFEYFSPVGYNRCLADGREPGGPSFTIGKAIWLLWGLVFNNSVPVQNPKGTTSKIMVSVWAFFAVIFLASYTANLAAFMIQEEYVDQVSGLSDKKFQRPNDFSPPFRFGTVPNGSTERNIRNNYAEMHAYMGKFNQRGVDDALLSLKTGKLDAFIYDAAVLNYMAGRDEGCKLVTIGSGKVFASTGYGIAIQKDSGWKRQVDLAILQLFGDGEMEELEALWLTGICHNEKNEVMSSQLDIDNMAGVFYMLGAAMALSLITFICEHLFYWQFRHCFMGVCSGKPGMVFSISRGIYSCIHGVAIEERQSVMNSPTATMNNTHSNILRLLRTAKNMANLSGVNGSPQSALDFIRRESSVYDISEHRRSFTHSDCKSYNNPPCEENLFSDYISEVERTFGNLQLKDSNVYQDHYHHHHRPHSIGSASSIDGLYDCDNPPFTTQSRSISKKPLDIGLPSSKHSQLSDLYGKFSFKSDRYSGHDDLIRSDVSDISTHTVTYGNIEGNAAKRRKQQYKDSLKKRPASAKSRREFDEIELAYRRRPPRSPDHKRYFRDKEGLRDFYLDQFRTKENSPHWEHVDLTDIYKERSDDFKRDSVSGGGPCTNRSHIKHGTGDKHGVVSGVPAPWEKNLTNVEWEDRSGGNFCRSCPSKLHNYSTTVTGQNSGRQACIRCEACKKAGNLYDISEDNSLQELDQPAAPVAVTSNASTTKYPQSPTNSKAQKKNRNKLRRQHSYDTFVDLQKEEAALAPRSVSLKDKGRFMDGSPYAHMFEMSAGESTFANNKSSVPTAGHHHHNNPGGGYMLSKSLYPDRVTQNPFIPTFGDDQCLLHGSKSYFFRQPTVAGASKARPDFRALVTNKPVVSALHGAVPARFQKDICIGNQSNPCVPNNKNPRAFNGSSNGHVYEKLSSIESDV
Sequence of CYP2D6 (P10635 whole entry): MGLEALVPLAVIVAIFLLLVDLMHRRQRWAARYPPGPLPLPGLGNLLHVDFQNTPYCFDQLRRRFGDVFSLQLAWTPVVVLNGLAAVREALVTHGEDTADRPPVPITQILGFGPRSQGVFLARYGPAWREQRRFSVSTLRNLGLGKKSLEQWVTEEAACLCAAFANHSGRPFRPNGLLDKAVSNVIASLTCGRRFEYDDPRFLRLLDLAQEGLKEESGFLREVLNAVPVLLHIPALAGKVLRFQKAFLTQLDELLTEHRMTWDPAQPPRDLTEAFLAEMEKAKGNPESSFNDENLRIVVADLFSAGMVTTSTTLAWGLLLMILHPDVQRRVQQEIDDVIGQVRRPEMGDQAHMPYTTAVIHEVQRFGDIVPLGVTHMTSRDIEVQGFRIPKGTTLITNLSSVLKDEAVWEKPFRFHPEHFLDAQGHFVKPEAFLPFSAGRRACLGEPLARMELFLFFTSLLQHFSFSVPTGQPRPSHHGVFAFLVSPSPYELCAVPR
Sequence of human NR1/NR2A (Q12879 23-1464, other chains not shown): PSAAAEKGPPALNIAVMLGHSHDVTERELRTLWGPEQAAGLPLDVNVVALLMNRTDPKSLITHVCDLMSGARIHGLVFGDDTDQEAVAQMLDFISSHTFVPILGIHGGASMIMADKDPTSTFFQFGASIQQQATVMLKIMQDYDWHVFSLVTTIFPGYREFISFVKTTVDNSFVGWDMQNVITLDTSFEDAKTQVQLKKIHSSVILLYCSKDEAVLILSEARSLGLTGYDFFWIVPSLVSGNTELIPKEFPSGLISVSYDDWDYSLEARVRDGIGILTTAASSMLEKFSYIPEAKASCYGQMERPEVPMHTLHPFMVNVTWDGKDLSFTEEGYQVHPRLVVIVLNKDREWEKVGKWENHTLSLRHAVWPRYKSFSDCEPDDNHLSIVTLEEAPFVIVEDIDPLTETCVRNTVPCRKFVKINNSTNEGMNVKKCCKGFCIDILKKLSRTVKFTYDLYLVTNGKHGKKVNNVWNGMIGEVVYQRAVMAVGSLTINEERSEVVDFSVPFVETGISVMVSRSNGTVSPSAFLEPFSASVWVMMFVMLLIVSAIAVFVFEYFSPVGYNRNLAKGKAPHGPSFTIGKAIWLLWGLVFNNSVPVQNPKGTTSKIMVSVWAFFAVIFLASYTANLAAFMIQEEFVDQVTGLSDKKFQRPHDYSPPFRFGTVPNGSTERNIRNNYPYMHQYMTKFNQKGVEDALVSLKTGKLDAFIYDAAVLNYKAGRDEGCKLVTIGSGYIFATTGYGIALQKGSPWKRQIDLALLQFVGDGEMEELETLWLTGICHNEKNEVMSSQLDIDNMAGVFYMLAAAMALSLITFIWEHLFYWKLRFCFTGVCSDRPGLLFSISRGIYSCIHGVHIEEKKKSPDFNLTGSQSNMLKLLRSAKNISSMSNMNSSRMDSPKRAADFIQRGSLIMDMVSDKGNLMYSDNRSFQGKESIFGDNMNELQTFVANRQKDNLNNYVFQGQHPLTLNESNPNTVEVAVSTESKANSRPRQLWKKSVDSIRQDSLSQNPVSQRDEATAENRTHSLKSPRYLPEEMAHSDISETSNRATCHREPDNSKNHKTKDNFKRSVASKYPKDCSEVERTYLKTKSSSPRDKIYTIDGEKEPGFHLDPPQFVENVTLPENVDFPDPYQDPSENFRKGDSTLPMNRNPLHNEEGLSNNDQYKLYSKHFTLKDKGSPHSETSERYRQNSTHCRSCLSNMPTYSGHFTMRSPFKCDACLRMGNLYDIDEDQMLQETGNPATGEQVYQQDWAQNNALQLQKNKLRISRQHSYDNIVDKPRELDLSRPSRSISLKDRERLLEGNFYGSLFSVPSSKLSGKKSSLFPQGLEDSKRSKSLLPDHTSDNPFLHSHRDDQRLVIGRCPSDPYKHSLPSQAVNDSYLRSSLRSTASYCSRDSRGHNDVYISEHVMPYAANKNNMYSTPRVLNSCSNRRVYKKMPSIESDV
Sequence of hERG channel (Q12809 whole entry): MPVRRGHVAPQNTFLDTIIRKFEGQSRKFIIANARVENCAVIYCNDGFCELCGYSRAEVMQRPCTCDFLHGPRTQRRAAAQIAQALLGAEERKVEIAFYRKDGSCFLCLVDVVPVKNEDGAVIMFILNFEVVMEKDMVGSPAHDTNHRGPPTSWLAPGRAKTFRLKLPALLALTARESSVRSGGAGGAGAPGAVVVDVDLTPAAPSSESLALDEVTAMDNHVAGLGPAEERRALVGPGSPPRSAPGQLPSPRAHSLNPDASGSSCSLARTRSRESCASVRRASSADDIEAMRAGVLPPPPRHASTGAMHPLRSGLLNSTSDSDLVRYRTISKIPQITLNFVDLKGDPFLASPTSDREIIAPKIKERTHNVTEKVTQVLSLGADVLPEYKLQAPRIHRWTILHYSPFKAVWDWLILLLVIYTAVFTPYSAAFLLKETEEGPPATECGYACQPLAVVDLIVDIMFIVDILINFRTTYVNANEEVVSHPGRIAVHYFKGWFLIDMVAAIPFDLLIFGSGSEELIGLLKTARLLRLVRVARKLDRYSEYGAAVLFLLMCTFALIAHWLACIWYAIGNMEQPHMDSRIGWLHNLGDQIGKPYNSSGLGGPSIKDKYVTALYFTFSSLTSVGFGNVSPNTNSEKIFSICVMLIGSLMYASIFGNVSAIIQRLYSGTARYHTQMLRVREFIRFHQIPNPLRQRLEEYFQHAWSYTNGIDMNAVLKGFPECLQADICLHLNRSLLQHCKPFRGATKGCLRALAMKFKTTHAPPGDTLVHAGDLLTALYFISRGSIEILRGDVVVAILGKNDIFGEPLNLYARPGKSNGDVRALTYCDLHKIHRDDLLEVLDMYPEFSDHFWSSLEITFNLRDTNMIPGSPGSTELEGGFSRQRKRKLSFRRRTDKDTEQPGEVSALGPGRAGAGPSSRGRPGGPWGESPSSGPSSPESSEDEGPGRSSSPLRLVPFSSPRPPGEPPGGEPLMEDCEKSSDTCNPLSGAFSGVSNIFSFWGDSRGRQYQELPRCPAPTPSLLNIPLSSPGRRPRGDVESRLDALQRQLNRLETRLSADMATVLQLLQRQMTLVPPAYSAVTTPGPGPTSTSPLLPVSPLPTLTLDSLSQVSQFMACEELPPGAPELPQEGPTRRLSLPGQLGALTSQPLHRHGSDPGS

Cc1cnc(C(F)(F)CN2CCC(Nc3ncnc4[nH]ccc34)CC2)c(F)c1 [Compound C-17, N-(1-(2,2-difluoro-2-(3-fluoro-5-methylpyridin-2-yl)ethyl)piperidin-4-yl)-7H-pyrrolo[2,3-d]pyrimidin-4-amine]
IC50 (human NR1/NR2B; read-out: NR2B IC50): 44 nM
IC50 (human NR1/NR2A): > 10000 nM

Cc1ccc(C(F)(F)CN2CCC(Nc3ncnc4[nH]ccc34)CC2)cn1 [Compound C-128, N-(1-(2,2-difluoro-2-(6-methylpyridin-3-yl)ethyl)piperidin-4-yl)-7H-pyrrolo-[2,3-d]pyrimidin-4-amine]
IC50 (human NR1/NR2B; read-out: NR2B IC50): 89 nM
IC50 (human NR1/NR2B; read-out: hNR2B IC50): 89 nM
IC50 (human NR1/NR2A): > 10000 nM
IC50 (hERG channel): 28000 nM

Cc1ccc(C(F)(F)CN2CCC(Nc3ncnc4[nH]ccc34)CC2)nc1 [Compound C-4, N-(1-(2,2-difluoro-2-(5-methylpyridin-2-yl)ethyl)piperidin-4-yl)-7H-pyrrolo[2,3-d]pyrimidin-4-amine]
IC50 (human NR1/NR2B; read-out: NR2B IC50): 35 nM
IC50 (human NR1/NR2B; read-out: hNR2B IC50): 35 nM
IC50 (human NR1/NR2A): > 10000 nM
IC50 (hERG channel): 11400 nM

Cc1ccc(C(F)(F)CN2CCC(Nc3ncnc4[nH]ccc34)CC2)cc1 [Compound C-177, N-(1-(2,2-difluoro-2-p-tolylethyl)piperidin-4-yl)-7H-pyrrolo[2,3-d]-pyrimidin-4-amine]
IC50 (human NR1/NR2B; read-out: NR2B IC50): 27 nM
IC50 (human NR1/NR2A): > 10000 nM

FC(F)c1ccc(C(F)(F)CN2CCC(Nc3ncnc4[nH]ccc34)CC2)nc1 [Compound C-6, N-(1-(2-(5-(difluoromethyl)pyridin-2-yl)-2,2-difluoroethyl)piperidin-4-yl)-7H-pyrrolo[2,3-d]pyrimidin-4-amine]
IC50 (human NR1/NR2B; [1]): 31 nM

Cn1c(=O)c2[nH]cnc2n(C)c1=O [theophylline]
pro-/anticonvulsant activity (electroconvulsive threshold) (Rats): expected pro- and anticonvulsant activities

CN1C(=O)CN=C(c2ccccc2)c2cc(Cl)ccc21 [diazepam]
pro-/anticonvulsant activity (electroconvulsive threshold) (Rats): expected pro- and anticonvulsant activities

Fc1cc(C(F)(F)F)cnc1C(F)(F)CN1CCC(Nc2ncnc3[nH]ccc23)CC1 [Compound C-18, N-(1-(2,2-difluoro-2-(3-fluoro-5-(trifluoromethyl)pyridin-2-yl)-ethyl)piperidin-4-yl)-7H-pyrrolo[2,3-d]pyrimidin-4-amine]
IC50 (human NR1/NR2B; [1]): 84 nM

FC(F)(CN1CCC(Nc2ncnc3[nH]ccc23)CC1)c1ccc(Cl)cc1 [Compound C-176, N-(1-(2-(4-chlorophenyl)-2,2-difluoroethyl)piperidin-4-yl)-7H-pyrrolo[2,3-d]pyrimidin-4-amine]
IC50 (human NR1/NR2B; read-out: NR2B IC50): 26 nM
IC50 (human NR1/NR2A): > 10000 nM

FC(F)(F)c1ccc(C(F)(F)CN2CCC(Nc3ncnc4[nH]ccc34)CC2)nc1 [Compound C-5, N-(1-(2,2-difluoro-2-(5-(trifluoromethyl)pyridin-2-yl)ethyl)piperidin-4-yl)-7H-pyrrolo[2,3-d]pyrimidin-4-amine]
IC50 (human NR1/NR2B; [1]): 30 nM
IC50 (human NR1/NR2B; [2]): 30 nM
IC50 (human NR1/NR2B; as printed in the hERG table, read-out: hNR2B IC50): 30 nM
IC50 (hERG channel): 9500 nM
IC50 (CYP2D6): 33000 nM

Cc1cnc(C(F)(F)CN2CCC(Nc3ncnc4[nH]ccc34)CC2)cn1 [Compound C-230, N-(1-(2,2-difluoro-2-(5-methylpyrazin-2-yl)ethyl)piperidin-4-yl)-7H-pyrrolo[2,3-d]pyrimidin-4-amine]
IC50 (human NR1/NR2B; read-out: NR2B IC50): 88 nM
IC50 (human NR1/NR2B; read-out: hNR2B IC50): 88 nM
IC50 (human NR1/NR2A): > 10000 nM
IC50 (hERG channel): 13800 nM

FCc1ccc(C(F)(F)CN2CCC(Nc3ncnc4[nH]ccc34)CC2)nc1 [Compound C-7, N-(1-(2,2-difluoro-2-(5-(fluoromethyl)pyridin-2-yl)ethyl)piperidin-4-yl)-7H-pyrrolo[2,3-d]pyrimidin-4-amine]
IC50 (human NR1/NR2B; read-out: NR2B IC50): 14 nM
IC50 (human NR1/NR2A): > 10000 nM

Cc1ccc(C(F)(F)CN2CCC(N(C)c3ncnc4[nH]ccc34)CC2)nc1 [Compound C-47, N-(1-(2,2-difluoro-2-(5-methylpyridin-2-yl)ethyl)piperidin-4-yl)-N-methyl-7H-pyrrolo[2,3-d]pyrimidin-4-amine]
IC50 (human NR1/NR2B; read-out: NR2B IC50): 140 nM
IC50 (human NR1/NR2A): > 10000 nM

FC(F)(F)c1ccc(C(F)(F)CN2CCC(Nc3ncnc4[nH]ccc34)CC2)cc1 [Compound C-178, N-(1-(2,2-difluoro-2-(4-(trifluoromethyl)phenyl)ethyl)piperidin-4-yl)-7H-pyrrolo-[2,3-d]pyrimidin-4-amine]
IC50 (human NR1/NR2B; [1]): 64 nM
IC50 (human NR1/NR2B; [2]): 64 nM
IC50 (human NR1/NR2A; [3]): > 10000 nM
IC50 (CYP2D6): 6700 nM

Fc1cc(Cl)cnc1C(F)(F)CN1CCC(Nc2ncnc3[nH]ccc23)CC1 [Compound C-16, N-(1-(2-(5-chloro-3-fluoropyridin-2-yl)-2,2-difluoroethyl)piperidin-4-yl)-7H-pyrrolo[2,3-d]pyrimidin-4-amine]
IC50 (human NR1/NR2B; read-out: NR2B IC50): 47 nM
IC50 (human NR1/NR2A): > 10000 nM

FC(F)c1ccc(C(F)(F)CN2CCC(Nc3ncnc4[nH]ccc34)CC2)cc1 [Compound C-179, N-(1-(2-(4-(difluoromethyl)phenyl)-2,2-difluoroethyl)piperidin-4-yl)-7H-pyrrolo[2,3-d]pyrimidin-4-amine]
IC50 (human NR1/NR2A; [3]): > 10000 nM
IC50 (CYP2D6): 4900 nM

FC(F)(F)Oc1ccc(C(F)(F)CN2CCC(Nc3ncnc4[nH]ccc34)CC2)nc1 [Compound C-11, N-(1-(2,2-difluoro-2-(5-(trifluoromethoxy)pyridin-2-yl)ethyl)piperidin-4-yl)-7H-pyrrolo[2,3-d]pyrimidin-4-amine]
IC50 (human NR1/NR2B; [1]): 43 nM

FC(F)(CN1CCC(Nc2ncnc3[nH]ccc23)CC1)c1ccc(Cl)cn1 [Compound C-3, N-(1-(2-(5-chloropyridin-2-yl)-2,2-difluoroethyl)piperidin-4-yl)-7H-pyrrolo-[2,3-d]pyrimidin-4-amine]
IC50 (human NR1/NR2A): > 10000 nM
IC50 (hERG channel): 7000 nM
IC50 (CYP2D6): 12000 nM

CN(C)CCCN1c2ccccc2CCc2ccccc21 [imipramine]
antidepressant activity (immobility time) (Male mice (strain NLMN)): expected antidepressant activity

Fc1ccc(C(F)(F)CN2CCC(Nc3ncnc4[nH]ccc34)CC2)nc1 [Compound C-2, N-(1-(2,2-difluoro-2-(5-fluoropyridin-2-yl)ethyl)piperidin-4-yl)-7H-pyrrolo[2,3-d]-pyrimidin-4-amine]
IC50 (human NR1/NR2B; read-out: NR2B IC50): 124 nM
IC50 (human NR1/NR2A): > 10000 nM

Fc1ccc(C(F)(F)CN2CCC(Nc3ncnc4[nH]ccc34)CC2)cc1 [Compound C-175, N-(1-(2,2-difluoro-2-(4-fluorophenyl)ethyl)piperidin-4-yl)-7H-pyrrolo[2,3-d]-pyrimidin-4-amine]
IC50 (human NR1/NR2B; read-out: NR2B IC50): 22 nM
IC50 (human NR1/NR2B; read-out: hNR2B IC50): 22 nM
IC50 (human NR1/NR2A): > 10000 nM
IC50 (hERG channel): 4500 nM
IC50 (CYP2D6): 2300 nM
